Test results reported in patent US20120128732A1, “COMBINATIONS AND MODES OF ADMINISTRATION OF THERAPEUTIC AGENTS AND COMBINATION THERAPY” (priority 2008, published 2012).

Tests used:
[1] = system: metastatic or advanced renal cell carcinoma; conditions: progressing after prior therapy with a VEGF receptor inhibitor; cited from earlier work
[2] = system: imatinib-resistant gastrointestinal stromal tumor; conditions: addition of perifosine to imatinib, patients; cited from earlier work
[3] = system: second or third-line metastatic colon cancer; conditions: perifosine in combination with capecitabine, patients with advanced; cited from earlier work
[4] = system: MDA-MB-231 breast tumor xenografts; test: Survival signals in MDA-MB-231 breast tumor xenografts after Abraxane (Western blotting, immunohistochemistry); assay type: in vivo, mice
Experimental: […] Tumor lysates were analyzed for VEGF expression and pro-survival signals (p42 & p44 kinase, p-NF-κB p50, p-Akt, bcl-2) using Western blotting. Expression of bcl-2 was further analyzed by immunohistochemistry.

Structure (SMILES) | clinical outcome in renal cell carcinoma [1] | activity in imatinib-refractory gastrointestinal stromal tumor [2] | median time to progression over capecitabine alone [3] | bcl-2 expression in tumors ([4]; surviving MDA-MB-231 tumors, SCID mice, Abraxane 10 to 30 mg/kg IV qdx5, Western blotting and immunohistochemistry) | inflammatory cytokines in tumors ([4]; tumors extracted immediately after therapy, Western blotting and immunohistochemistry)
CCCCCCCCCCCCCCCCCCOP(=O)([O-])OC1CC[N+](C)(C)CC1 [perifosine] | clinical benefits | minimal activity | more than doubled | – | –
CC(=O)O[C@H]1C(=O)[C@@]2(C)[C@H]([C@H](OC(=O)c3ccccc3)[C@]3(O)C[C@H](OC(=O)[C@H](O)[C@@H](NC(=O)c4ccccc4)c4ccccc4)C(C)=C1C3(C)C)[C@]1(OC(C)=O)CO[C@@H]1C[C@@H]2O [paclitaxel] | – | – | – | Significant increases | Significant increases
